Assay results from patent US20080286147A1, “Apparatus and Method for Decontamination” (GOVERNMENT OF THE U.S.A. OF AMERICA AS REPRESENTED, priority 2004, published 2008).
Where “and” joins values, the source holds several entries; their conditions need not be identical. Identical values can stand only once.

Legend:
Assay type in all cases: cell-based
[1] = tested on: B. subtilis var. niger spores; assay: Decontamination of a mock BSC containing spore test strips with chlorine dioxide gas; strips cultured in tryptic soy broth
Text: Test strips contaminated with 2.4×10^4 B. subtilis var. niger spores (Castle Biospore Biological Indicators, Castle, Inc., Rochester, N.Y.) were placed inside a mock BSC (FIG. 7) in various positions. The mock BSC was generated such that it was sealed from the outside environment, and included two openings to permit influx and efflux of air and other agents through the mock BSC.
After sealing the mock BSC, the sealed mock BSC was humidified to 74-95% relative humidity using the following methods. Referring to FIGS. 2, 3 and 7, water was added to a humidifier/scrubber 22, and a blower 24 attached to the humidifier/scrubber 22 to allow air to pass by the water to generate humidified air. A hose 30 coming from the humidifier/scrubber which emitted humidified air was introduced into one of the openings 402 in the mock BSC 400. A hose 36 coming out of the mock BSC was attached to the blower 22, thereby providing a closed-loop which circulated humidified air from the humidifier/scrubber 22 into the mock BSC 400, out of the mock BSC 400 and back to the humidifier/scrubber 22, and so on. A hygrometer 404 in the mock BSC was used to monitor the relative humidity in the mock BSC.
During the humidification, chlorine dioxide gas was introduced into the mock BSC as follows. A tank 12 containing a 4% chlorine/96% nitrogen gas mixture was turned on to permit the flow of gas to a CDG Saf-T-Chlor™ chlorine dioxide gas generator 14. This generator includes a sodium chlorite cartridge in fluid communication with the 4% Cl/96% N2 gas mixture. The resulting chlorine dioxide gas was allowed to flow into the hose 30 exiting the humidifier/scrubber (containing the humidified air), and was allowed to enter the mock BSC along with the humidified air. A chlorine dioxide monitor in the mock BSC allowed for a determination of the amount of chloride dioxide in the mock BSC. In some instances, the air circulation was increased by including a fan 406 in the mock BSC.
Following exposure to chlorine dioxide, the tank 12 containing a 4% Cl/96% N2 gas mixture was turned off, to stop the flow and production of chlorine dioxide gas. To neutralize the chlorine dioxide gas, the following methods were used. A neutralizing solution that included 10% NaOH and 10% sodium thiosulfate hydrate (in water) was introduced into the humidifier/scrubber 22. Air from the mock BSC containing chlorine dioxide gas was circulated through the closed system described above, such that when the air containing chloride dioxide gas passed through the humidifier/scrubber 22, it was at least partially neutralized. […]

[2] = tested on: B. subtilis var. niger spores; assay: Decontamination of a BSC containing spore test strips using 4000 ppm ClO2 for 60 min; details: 75% relative humidity
Text: (§1) Test strips described in Example 1 were placed inside a BSC (FIG. 8) in various positions. Referring to FIGS. 2, 3 and 8, the opening in the front of the BSC 500 was sealed using a polyethylene sheet 502 or plastic sheeting and duct tape. An opening 504 was made in the plastic or polyethylene 502 to permit influx of air and other agents through the sealed BSC 500. Gas was evacuated from the sealed BSC using the port 506 on the top of the sealed BSC through fluid flow path 36.
After sealing the BSC, the sealed area was humidified to 75% relative humidity as described in Example 1. Briefly, water was added to a humidifier/scrubber 22, and a blower 24 attached to the humidifier/scrubber 22 to allow air to pass by the water to generate humidified air. A hose 30 coming from the humidifier/scrubber which emitted humidified air was introduced into an opening 504 in the sealed BSC 500. A hose 36 coming out of the BSC was attached to the blower 22, thereby providing a closed-loop which circulated humidified air from the humidifier/scrubber 22 into the sealed BSC 500, out of the sealed BSC 500 and back to the humidifier/scrubber 22, and so on.
During the humidification, chlorine dioxide gas was introduced into the BSC as described in Example 1. The BSC was exposed to 4000 ppm chlorine dioxide gas for one hour. […]

[3] = tested on: B. subtilis var. niger spores; assay: Decontamination of a BSC containing spore test strips using 2500 ppm ClO2 for 60 min; details: 70-80% relative humidity
Text: as §1
After sealing the BSC, the sealed area was humidified to 70-80% relative humidity as described in Examples 1 and 2. During the humidification, chlorine dioxide gas was introduced into the BSC as described in Example 1. The BSC was exposed to 2500 ppm chlorine dioxide gas for one hour. The BSC circulates 15 s/5 min.
Once the hour was up, the chlorine dioxide gas was neutralized as described above. The test strips were cultured as described in Example 1.

## [O][Cl+][O-] [ClO2, Chlorine dioxide]
[1]; Run A: 1500 ppm ClO2, exposure 90 min, relative humidity 95%, 69 °F, strips with 2.4×10^4 spores
  Kill (number of test strips negative for spore growth): 16/16
[1]; Run B: 1500 ppm ClO2, exposure 90 min, relative humidity 85%, 69 °F
  Kill (number of test strips negative for spore growth): 16/16
[1]; Run C: 2200 ppm ClO2, exposure 60 min, relative humidity 74%, 69 °F
  Kill (number of test strips negative for spore growth): 17/17
[1]; Run D: 2000 ppm ClO2, exposure 60 min, relative humidity 75%, 68 °F
  Kill (number of test strips negative for spore growth): 17/17
[2]; 4000 ppm ClO2 for 60 min, Runs A-E (76.0-86.0 °F)
  Kill (number of test strips negative for spore growth): 24/24 and 23/24
[2]; 4000 ppm chlorine dioxide gas for one hour
  spore kill on test strips (in words): all spores were killed except on one test strip
[3]; 2500 ppm ClO2 for 60 min, Runs A-D (70-74 °F)
  Kill (number of test strips negative for spore growth): 24/24 and 23/23
[3]; 2500 ppm chlorine dioxide gas for one hour
  spore kill on test strips (in words): all spores were killed
